Data from ChEMBL document CHEMBL1139653, “Synthesis and biological evaluation of novel hexahydro-pyrido[3',2':4,5]pyrrolo[1,2-a]pyrazines as potent and selective 5-HT(2C) receptor agonists” (Bioorg Med Chem Lett, 2006).

Target: Beta-1 adrenergic receptor (Homo sapiens, UniProt P08588)
Assay: Binding affinity to beta-1 adrenergic receptor
Details: not given; call rule not given here

Sequence of Beta-1 adrenergic receptor (P08588 whole entry): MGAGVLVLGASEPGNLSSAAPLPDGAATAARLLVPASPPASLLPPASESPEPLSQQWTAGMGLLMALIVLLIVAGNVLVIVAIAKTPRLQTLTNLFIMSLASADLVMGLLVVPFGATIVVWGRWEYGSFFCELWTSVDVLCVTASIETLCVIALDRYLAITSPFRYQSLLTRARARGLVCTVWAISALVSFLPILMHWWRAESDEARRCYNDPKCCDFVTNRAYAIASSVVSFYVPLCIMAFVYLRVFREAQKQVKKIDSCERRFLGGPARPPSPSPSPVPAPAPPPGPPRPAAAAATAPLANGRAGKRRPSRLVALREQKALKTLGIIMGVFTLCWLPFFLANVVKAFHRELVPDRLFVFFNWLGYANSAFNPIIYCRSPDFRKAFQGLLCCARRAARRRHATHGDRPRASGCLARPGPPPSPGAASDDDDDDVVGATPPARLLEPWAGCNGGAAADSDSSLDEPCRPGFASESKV

Compound	Ki
C[C@@H]1CNC[C@H]2Cc3ccc(COCC4CC4)nc3N21	> 1000 nM

Target: T1, 5-hydroxytryptamine receptor 2B (Homo sapiens, UniProt P41595)
Assay: Displacement of [3H]5HT from human recombinant 5HT2B receptor expressed in CHO cells
Type: cell-based
Details: not given

T1 sequence (P41595 whole entry): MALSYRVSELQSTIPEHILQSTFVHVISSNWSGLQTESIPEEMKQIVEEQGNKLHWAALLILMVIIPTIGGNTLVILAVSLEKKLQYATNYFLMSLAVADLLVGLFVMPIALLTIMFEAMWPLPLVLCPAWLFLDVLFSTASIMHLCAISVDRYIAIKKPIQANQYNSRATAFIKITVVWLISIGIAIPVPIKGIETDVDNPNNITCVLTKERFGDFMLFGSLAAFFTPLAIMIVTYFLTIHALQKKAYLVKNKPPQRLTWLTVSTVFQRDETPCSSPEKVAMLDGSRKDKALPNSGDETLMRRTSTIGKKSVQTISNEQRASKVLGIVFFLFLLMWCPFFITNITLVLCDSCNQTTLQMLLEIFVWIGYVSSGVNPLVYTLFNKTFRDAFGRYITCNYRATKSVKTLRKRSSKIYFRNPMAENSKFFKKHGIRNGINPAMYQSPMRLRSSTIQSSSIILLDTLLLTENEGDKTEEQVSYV

Compound	Ki
C[C@@H]1CNC[C@H]2Cc3ccc(Cl)nc3N21	48 nM
C[C@H](O)c1ccc2c(n1)N1[C@@H](CNC[C@H]1C)C2	835 nM
C[C@@H]1CNC[C@@H]2Cc3ccc(Cl)nc3N21	217 nM
CCO[C@@H](C)c1ccc2c(n1)N1[C@@H](CNC[C@H]1C)C2	295 nM
C[C@@H]1CNC[C@@H]2Cc3ccc(Br)nc3N21	166 nM
Cc1c(Cl)ccc2c1N1[C@H](CNC[C@H]1C)C2	40 nM
C[C@@H]1CNC[C@H]2Cc3ccc(CO)nc3N21	1140 nM
CCO[C@H](C)c1ccc2c(n1)N1[C@@H](CNC[C@H]1C)C2	1310 nM
C[C@@H]1CNC[C@H]2Cc3ccc(COCC4CC4)nc3N21	174 nM
Clc1ccc2c(n1)N1CCNCC1C2 (centres undefined)	221 nM
C[C@@H]1CNC[C@H]2Cc3ccc(C#N)nc3N21	1820 nM
C[C@@H]1CNC[C@H]2Cc3ccc(Br)nc3N21	81 nM
COCc1ccc2c(n1)N1[C@@H](CNC[C@H]1C)C2	379 nM
Cc1ccc2c(n1)N1[C@@H](CNC[C@H]1C)C2	77 nM
C[C@@H]1CNC[C@H]2Cc3ccc(C(F)(F)F)nc3N21	68 nM
COc1ccc2c(n1)N1[C@@H](CNC[C@H]1C)C2	440 nM

Target: not listed separately
Assay: Binding affinity to sodium channel
Details: not given

Compound	Ki
C[C@@H]1CNC[C@H]2Cc3ccc(COCC4CC4)nc3N21	> 1000 nM

Test system: Phospholipidosis
Assay: In vitro phospholipidosis in fibroblasts at 20uM
Type: ADME
Details: not given

Compound	Phospholipidosis
C[C@@H]1CNC[C@H]2Cc3ccc(COCC4CC4)nc3N21	Not Active
Cc1ccc2c(n1)N1[C@@H](CNC[C@H]1C)C2	Not Active

Target: 5-hydroxytryptamine receptor 1D (Homo sapiens, UniProt P28221)
Assay: Binding affinity to 5HT1D receptor
Details: not given

Compound	Ki
C[C@@H]1CNC[C@H]2Cc3ccc(COCC4CC4)nc3N21	> 360 nM

Target: 5-hydroxytryptamine receptor 5A (Homo sapiens, UniProt P47898)
Assay: Binding affinity to 5HT5A receptor
Details: not given

Compound	Ki
C[C@@H]1CNC[C@H]2Cc3ccc(COCC4CC4)nc3N21	> 720 nM

Target: Mu-type opioid receptor (Homo sapiens, UniProt P35372)
Assay: Binding affinity to mu type opioid receptor
Details: not given

Compound	Ki
C[C@@H]1CNC[C@H]2Cc3ccc(COCC4CC4)nc3N21	> 1000 nM

Target: T2, 5-hydroxytryptamine receptor 2C (Homo sapiens) (UniProt P28335)
T2 sequence (whole entry): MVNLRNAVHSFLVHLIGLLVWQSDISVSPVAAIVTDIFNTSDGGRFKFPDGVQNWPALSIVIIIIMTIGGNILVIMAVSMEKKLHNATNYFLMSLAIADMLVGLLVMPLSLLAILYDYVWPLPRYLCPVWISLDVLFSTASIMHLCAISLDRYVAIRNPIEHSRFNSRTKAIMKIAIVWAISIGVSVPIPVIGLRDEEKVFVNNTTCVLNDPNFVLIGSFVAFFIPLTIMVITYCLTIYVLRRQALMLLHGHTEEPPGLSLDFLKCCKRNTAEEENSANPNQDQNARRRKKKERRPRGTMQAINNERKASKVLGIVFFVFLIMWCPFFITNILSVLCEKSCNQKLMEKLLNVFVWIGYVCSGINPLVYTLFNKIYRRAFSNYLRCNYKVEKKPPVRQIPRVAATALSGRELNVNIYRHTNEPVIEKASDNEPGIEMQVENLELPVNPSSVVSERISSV
Assay: Efficacy against human recombinant 5HT2C receptor expressed in CHO cells at 1 uM in relative to 10 uM 5HT by FLIPR
Type: functional, cell-based
Details: not given

Compound	Efficacy
C[C@@H]1CNC[C@H]2Cc3ccc(Cl)nc3N21	98%
C[C@H](O)c1ccc2c(n1)N1[C@@H](CNC[C@H]1C)C2	101%
CC(=O)Nc1ccc2c(n1)N1[C@@H](CNC[C@H]1C)C2	0%
C[C@@H]1CNC[C@@H]2Cc3ccc(Cl)nc3N21	81%
CCO[C@@H](C)c1ccc2c(n1)N1[C@@H](CNC[C@H]1C)C2	83%
C[C@@H]1CNC[C@@H]2Cc3ccc(Br)nc3N21	87%
C[C@@H]1CNC[C@H]2Cc3ccc(CO)nc3N21	88%
CCO[C@H](C)c1ccc2c(n1)N1[C@@H](CNC[C@H]1C)C2	86%
C[C@@H]1CNC[C@H]2Cc3ccc(COCC4CC4)nc3N21	87%
C[C@@H]1CNC[C@H]2Cc3ccc(C#N)nc3N21	85%
C[C@@H]1CNC[C@H]2Cc3ccc(Br)nc3N21	97%
COCc1ccc2c(n1)N1[C@@H](CNC[C@H]1C)C2	97%
Cc1ccc2c(n1)N1[C@@H](CNC[C@H]1C)C2	101%
C[C@@H]1CNC[C@H]2Cc3ccc(C(F)(F)F)nc3N21	96%
COc1ccc2c(n1)N1[C@@H](CNC[C@H]1C)C2	77%

Target: hERG (KCNH2) (Homo sapiens, UniProt Q12809)
Assay: Inhibition of hERG potassium channel expressed in CHO cells by whole cell patch clamp method at 10 uM
Type: toxicity, cell-based
Details: CHO cells expressing hERG

Sequence of hERG (KCNH2) (Q12809 whole entry): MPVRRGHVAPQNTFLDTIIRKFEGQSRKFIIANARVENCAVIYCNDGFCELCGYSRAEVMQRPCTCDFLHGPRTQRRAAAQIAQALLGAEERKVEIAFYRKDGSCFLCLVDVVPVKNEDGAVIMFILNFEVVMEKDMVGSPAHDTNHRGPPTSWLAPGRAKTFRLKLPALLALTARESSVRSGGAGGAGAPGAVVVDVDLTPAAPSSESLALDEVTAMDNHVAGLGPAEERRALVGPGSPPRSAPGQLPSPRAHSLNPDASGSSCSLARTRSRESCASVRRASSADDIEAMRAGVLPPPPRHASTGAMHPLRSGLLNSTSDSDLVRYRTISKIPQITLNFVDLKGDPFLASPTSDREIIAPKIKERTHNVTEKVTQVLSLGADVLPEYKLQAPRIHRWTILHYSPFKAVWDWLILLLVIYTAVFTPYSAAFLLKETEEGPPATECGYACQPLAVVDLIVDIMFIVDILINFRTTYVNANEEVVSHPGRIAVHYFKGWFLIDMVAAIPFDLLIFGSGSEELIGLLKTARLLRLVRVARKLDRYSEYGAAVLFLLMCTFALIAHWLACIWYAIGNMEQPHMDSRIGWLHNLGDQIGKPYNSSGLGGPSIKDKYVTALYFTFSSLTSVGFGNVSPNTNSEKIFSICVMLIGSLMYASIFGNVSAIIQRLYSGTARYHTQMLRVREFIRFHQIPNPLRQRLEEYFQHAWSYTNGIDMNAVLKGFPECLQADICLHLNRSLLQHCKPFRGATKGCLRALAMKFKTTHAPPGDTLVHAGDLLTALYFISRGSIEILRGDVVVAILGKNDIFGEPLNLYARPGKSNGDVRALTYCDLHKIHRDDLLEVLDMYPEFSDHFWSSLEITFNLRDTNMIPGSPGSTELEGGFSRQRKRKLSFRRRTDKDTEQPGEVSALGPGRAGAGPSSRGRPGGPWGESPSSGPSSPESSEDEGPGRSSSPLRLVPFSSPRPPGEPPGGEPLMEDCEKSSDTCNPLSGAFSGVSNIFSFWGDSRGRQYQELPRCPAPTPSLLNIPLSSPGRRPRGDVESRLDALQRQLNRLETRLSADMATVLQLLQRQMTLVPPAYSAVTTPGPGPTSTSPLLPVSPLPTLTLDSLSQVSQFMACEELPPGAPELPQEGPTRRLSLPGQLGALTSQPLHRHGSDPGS

Compound	inhibition at 10 µM
CCO[C@@H](C)c1ccc2c(n1)N1[C@@H](CNC[C@H]1C)C2	20%

Target: Sodium-dependent noradrenaline transporter (Homo sapiens, UniProt P23975)
Assay: Binding affinity to NA transporter
Details: not given

Compound	Ki
C[C@@H]1CNC[C@H]2Cc3ccc(COCC4CC4)nc3N21	> 1000 nM

Target: Voltage-gated inwardly rectifying potassium channel KCNH2 (Homo sapiens, UniProt Q12809)
Assay: Inhibition of hERG potassium channel expressed in CHO cells by whole cell patch clamp method
Type: toxicity, cell-based
Details: not given

Sequence of Voltage-gated inwardly rectifying potassium channel KCNH2 (Q12809 whole entry): as above

Compound	IC50
C[C@@H]1CNC[C@H]2Cc3ccc(Cl)nc3N21	40000 nM
C[C@@H]1CNC[C@H]2Cc3ccc(COCC4CC4)nc3N21	> 30000 nM
Cc1ccc2c(n1)N1[C@@H](CNC[C@H]1C)C2	21000 nM

Target: 5-hydroxytryptamine receptor 1A (Homo sapiens, UniProt P08908)
Assay: Binding affinity to 5HT1A receptor
Details: not given

Compound	Ki
C[C@@H]1CNC[C@H]2Cc3ccc(COCC4CC4)nc3N21	> 720 nM

Target: 5-hydroxytryptamine receptor 7 (Homo sapiens, UniProt P34969)
Assay: Binding affinity to 5HT7 receptor
Details: not given

Compound	Ki
C[C@@H]1CNC[C@H]2Cc3ccc(COCC4CC4)nc3N21	> 1000 nM

Target: 5-hydroxytryptamine receptor 6 (Homo sapiens, UniProt P50406)
Assay: Binding affinity to 5HT6 receptor
Details: not given

Compound	Ki
C[C@@H]1CNC[C@H]2Cc3ccc(COCC4CC4)nc3N21	> 720 nM

Target: D(4) dopamine receptor (Homo sapiens, UniProt P21917)
Assay: Binding affinity to D4 receptor
Details: not given

Sequence of D(4) dopamine receptor (P21917 whole entry): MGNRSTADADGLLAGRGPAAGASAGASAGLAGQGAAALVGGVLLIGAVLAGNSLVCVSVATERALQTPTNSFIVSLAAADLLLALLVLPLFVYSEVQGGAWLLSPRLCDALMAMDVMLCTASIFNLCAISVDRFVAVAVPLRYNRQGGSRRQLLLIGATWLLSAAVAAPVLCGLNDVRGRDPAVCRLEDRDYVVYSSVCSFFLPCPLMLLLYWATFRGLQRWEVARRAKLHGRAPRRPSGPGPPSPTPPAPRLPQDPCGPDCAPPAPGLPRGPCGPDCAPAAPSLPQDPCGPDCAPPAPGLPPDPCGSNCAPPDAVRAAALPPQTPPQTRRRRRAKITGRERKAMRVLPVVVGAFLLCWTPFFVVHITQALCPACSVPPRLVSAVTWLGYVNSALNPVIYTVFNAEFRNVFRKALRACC

Compound	Ki
C[C@@H]1CNC[C@H]2Cc3ccc(COCC4CC4)nc3N21	> 720 nM

Target: T3, 5-hydroxytryptamine receptor 2C (Homo sapiens, UniProt P28335)
T3 sequence (P28335 whole entry): T2 sequence (whole entry)
Assay: Efficacy against human recombinant 5HT2C receptor induced intracellular calcium mobilization in CHO cells by FLIPR
Details: not given

Compound	EC50
C[C@@H]1CNC[C@H]2Cc3ccc(COCC4CC4)nc3N21	15 nM

Target: T3, 5-hydroxytryptamine receptor 2C
Assay: Displacement of [3H]5HT from human recombinant 5HT2C receptor expressed in CHO cells
Type: cell-based
Details: not given

Compound	Ki
C[C@@H]1CNC[C@H]2Cc3ccc(Cl)nc3N21	1.6 nM
C[C@H](O)c1ccc2c(n1)N1[C@@H](CNC[C@H]1C)C2	39 nM
C[C@@H]1CNC[C@@H]2Cc3ccc(Cl)nc3N21	52 nM
CCO[C@@H](C)c1ccc2c(n1)N1[C@@H](CNC[C@H]1C)C2	2.3 nM
C[C@@H]1CNC[C@@H]2Cc3ccc(Br)nc3N21	21 nM
C[C@@H]1CNC[C@H]2Cc3ccc(CO)nc3N21	54 nM
CCO[C@H](C)c1ccc2c(n1)N1[C@@H](CNC[C@H]1C)C2	93 nM
C[C@@H]1CNC[C@H]2Cc3ccc(COCC4CC4)nc3N21	3.6 nM
Clc1ccc2c(n1)N1CCNCC1C2 (centres undefined)	131 nM
C[C@@H]1CNC[C@H]2Cc3ccc(C#N)nc3N21	60 nM
C[C@@H]1CNC[C@H]2Cc3ccc(Br)nc3N21	0.8 nM
COCc1ccc2c(n1)N1[C@@H](CNC[C@H]1C)C2	16 nM
Cc1ccc2c(n1)N1[C@@H](CNC[C@H]1C)C2	2.7 nM
C[C@@H]1CNC[C@H]2Cc3ccc(C(F)(F)F)nc3N21	14 nM
COc1ccc2c(n1)N1[C@@H](CNC[C@H]1C)C2	104 nM

Target: 5-hydroxytryptamine receptor 1B (Homo sapiens, UniProt P28222)
Assay: Binding affinity to 5HT1B receptor
Details: not given

Compound	Ki
C[C@@H]1CNC[C@H]2Cc3ccc(COCC4CC4)nc3N21	> 720 nM

Target: Serotonin 3 (5-HT3) receptor
Assay: Binding affinity to 5HT3 receptor
Type: protein-complex assay, Homo sapiens
Details: not given

Compound	Ki
C[C@@H]1CNC[C@H]2Cc3ccc(COCC4CC4)nc3N21	> 1000 nM

Test system: Rattus norvegicus
Assay: Reduction of food intake in po dosed Hooded Lister rat
Type: functional
Details: read-out: MED

Compound	minimal effective dose
C[C@@H]1CNC[C@H]2Cc3ccc(COCC4CC4)nc3N21	10 mg/kg

Target: T4, 5-hydroxytryptamine receptor 2A (Homo sapiens, UniProt P28223)
Assay: Displacement of [125I]DOI from human recombinant 5HT2A receptor expressed in CHO cells
Type: cell-based
Details: not given

T4 sequence (P28223 whole entry): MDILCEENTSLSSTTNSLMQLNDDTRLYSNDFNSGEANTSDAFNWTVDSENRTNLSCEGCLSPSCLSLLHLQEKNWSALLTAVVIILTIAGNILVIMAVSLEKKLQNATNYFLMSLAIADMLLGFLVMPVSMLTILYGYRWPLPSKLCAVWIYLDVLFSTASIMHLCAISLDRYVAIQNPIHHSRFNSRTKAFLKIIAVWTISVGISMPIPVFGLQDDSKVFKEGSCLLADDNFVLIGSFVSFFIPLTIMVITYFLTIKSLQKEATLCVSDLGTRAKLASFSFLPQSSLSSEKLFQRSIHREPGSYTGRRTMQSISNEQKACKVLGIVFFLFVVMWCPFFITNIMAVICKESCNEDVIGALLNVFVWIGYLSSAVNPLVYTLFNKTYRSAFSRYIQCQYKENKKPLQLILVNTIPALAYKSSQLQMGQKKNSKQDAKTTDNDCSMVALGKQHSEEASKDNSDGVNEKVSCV

Compound	Ki
C[C@@H]1CNC[C@H]2Cc3ccc(Cl)nc3N21	42 nM
C[C@H](O)c1ccc2c(n1)N1[C@@H](CNC[C@H]1C)C2	392 nM
C[C@@H]1CNC[C@@H]2Cc3ccc(Cl)nc3N21	54 nM
CCO[C@@H](C)c1ccc2c(n1)N1[C@@H](CNC[C@H]1C)C2	65 nM
C[C@@H]1CNC[C@@H]2Cc3ccc(Br)nc3N21	58 nM
Cc1c(Cl)ccc2c1N1[C@H](CNC[C@H]1C)C2	19 nM
C[C@@H]1CNC[C@H]2Cc3ccc(CO)nc3N21	942 nM
CCO[C@H](C)c1ccc2c(n1)N1[C@@H](CNC[C@H]1C)C2	2380 nM
C[C@@H]1CNC[C@H]2Cc3ccc(COCC4CC4)nc3N21	74 nM
Clc1ccc2c(n1)N1CCNCC1C2 (centres undefined)	217 nM
C[C@@H]1CNC[C@H]2Cc3ccc(C#N)nc3N21	2550 nM
C[C@@H]1CNC[C@H]2Cc3ccc(Br)nc3N21	53 nM
COCc1ccc2c(n1)N1[C@@H](CNC[C@H]1C)C2	565 nM
Cc1ccc2c(n1)N1[C@@H](CNC[C@H]1C)C2	136 nM
C[C@@H]1CNC[C@H]2Cc3ccc(C(F)(F)F)nc3N21	43 nM
COc1ccc2c(n1)N1[C@@H](CNC[C@H]1C)C2	511 nM

Test system: Phospholipidosis
Assay: In vitro phospholipidosis in fibroblasts at 7.5uM
Type: ADME, cell-based
Details: fibroblast

Compound	Phospholipidosis
Cc1c(Cl)ccc2c1N1[C@H](CNC[C@H]1C)C2	7.5 µM

Target: T1, 5-hydroxytryptamine receptor 2B
Assay: Efficacy against human recombinant 5HT2B receptor induced intracellular calcium mobilization in CHO cells by FLIPR
Type: functional, cell-based
Details: not given

Compound	EC50	Emax
C[C@@H]1CNC[C@H]2Cc3ccc(COCC4CC4)nc3N21	23 nM	31%

Target: Sodium-dependent dopamine transporter (Homo sapiens, UniProt Q01959)
Assay: Binding affinity to DA transporter
Details: not given

Sequence of Sodium-dependent dopamine transporter (Q01959 whole entry): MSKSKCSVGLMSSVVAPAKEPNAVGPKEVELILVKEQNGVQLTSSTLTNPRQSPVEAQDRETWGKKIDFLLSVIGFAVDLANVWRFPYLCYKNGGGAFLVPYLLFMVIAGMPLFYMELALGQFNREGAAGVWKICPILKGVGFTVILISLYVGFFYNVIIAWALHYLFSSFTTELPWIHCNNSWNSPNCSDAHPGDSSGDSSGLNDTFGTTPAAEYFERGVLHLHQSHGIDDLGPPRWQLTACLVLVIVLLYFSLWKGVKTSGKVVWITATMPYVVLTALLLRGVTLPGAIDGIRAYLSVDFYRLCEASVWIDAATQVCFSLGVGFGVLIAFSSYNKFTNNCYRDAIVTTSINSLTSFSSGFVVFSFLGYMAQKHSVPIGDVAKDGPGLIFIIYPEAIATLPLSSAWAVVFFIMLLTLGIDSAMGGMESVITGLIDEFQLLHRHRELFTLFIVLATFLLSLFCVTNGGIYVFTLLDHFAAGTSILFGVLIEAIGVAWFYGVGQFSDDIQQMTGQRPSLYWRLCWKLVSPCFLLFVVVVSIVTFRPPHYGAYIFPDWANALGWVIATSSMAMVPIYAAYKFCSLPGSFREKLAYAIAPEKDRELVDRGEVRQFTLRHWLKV

Compound	Ki
C[C@@H]1CNC[C@H]2Cc3ccc(COCC4CC4)nc3N21	> 1000 nM

Target: Adrenergic receptor alpha-1 (Homo sapiens, UniProt P35348+P25100+P35368)
Assay: Binding affinity to alpha-1 adrenergic receptor
Type: protein assay
Details: not given

Compound	Ki
C[C@@H]1CNC[C@H]2Cc3ccc(COCC4CC4)nc3N21	> 1000 nM

Target: Sodium-dependent serotonin transporter (Homo sapiens, UniProt P31645)
Assay: Binding affinity to 5HT transporter
Details: not given

Compound	Ki
C[C@@H]1CNC[C@H]2Cc3ccc(COCC4CC4)nc3N21	> 1000 nM

Target: T4, 5-hydroxytryptamine receptor 2A
Details: not given

Compound	pKb
C[C@@H]1CNC[C@H]2Cc3ccc(COCC4CC4)nc3N21	6.7
